The values that follow are results of earlier work, collected in patent publication US6737430B2, “Mutual prodrug of amlodipine and atorvastatin” (Pfizer, Inc., priority 2000, dated 2004).

In one data set the test system is calcium channel. Particulars: cited from earlier work.
Data set [1] deals with smooth muscle cell migration. The conditions noted are these: cited from earlier work.

On to `CCOC(=O)C1=C(COCCN)NC(C)=C(C(=O)OC)[C@H]1c1ccccc1Cl` (single isomer, unassigned) [(R) enantiomer, R(−)-amlodipine], for which, in the data set on calcium channel, the “calcium channel blocking activity” value is listed as “little or no calcium channel blocking activity”. The “inhibition of smooth muscle cell migration” value in data set [1] was “potent inhibitor of smooth muscle cell migration”.
